Data set [1] relates to human TRPA1. Briefly: Ratiometric calcium imaging of NAPQI activation of TRPA1 in HEK 293 cells. The settings on record: 7 μM NAPQI; for inhibition of the activation of the receptor (TRPA1) by NAPQI: 4 μM test substance, HEK 293 cells expressing human TRPA1, FIG. 1. Type of data set: cell-based. The method, then: The calcium ion channel TRPA 1 is activated by NAPQI. This activation may be determined by ratiometric calcium imaging.
HEK 293 cells expressing human TRPA1 were pre-incubated with 7 μM NAPQI and the calcium fluorophore FURA II. One experiment was run in the presence of 4 μM NBMI and the another was run in the presence of 4 μM NAC.

Data set [2] can be described thus: Clinical proof of concept study: paracetamol and cys-paracetamol in venous blood after 1 g paracetamol with or without NBMI. In kind it is in vivo, human. The settings on record: venous blood over eight hours. The protocol:
A pilot clinical study was performed at the Lund Hospital Clinical Trial Unit, on three occasions.

Data set [3] has as its system paracetamol intoxicated mice. As to the kind of experiment: Paracetamol intoxicated mice study, oral paracetamol (ALT). Type of data set: in vivo. The method, then: (§1) The ratio of AST: ALT can also be relevant in humans; a value at or below 1 is considered to indicate toxicity.
20 minutes later, half of the mice (3) were administered vehicle (0.5% (w/v) carboxymethylcellulose 300-600 centipoises in water) only, half of the mice (3) received NBMI 100 mg/kg per os (NBMI dissolved in CMC as described below). […]

Data set [4] relates to paracetamol intoxicated mice. Briefly: Paracetamol intoxicated mice study, i.p. paracetamol (ALT, AST). Type of data set: in vivo. The note with it: paracetamol 300 mg/kg I.P., 24 hours. The method, then: In normal mice, the liver enzyme alanine transaminase (ALT) level is about 36-40 unit/L and the liver enzyme aspartate transaminase (AST) level is about 90 unit/L. […] The ratio of AST: ALT can also be relevant in humans; a value at or below 1 is considered to indicate toxicity. […] 30 minutes later, two (2) of the mice were administered vehicle only, two (2) received NAC 1200 mg/kg per os, two (2) received NBMI 200 mg/kg per os. The mice were sacrificed at 24 hours.

Data set [5] relates to paracetamol intoxicated mice. Briefly: NBMI versus vehicle in paracetamol intoxicated mice, i.p. paracetamol, synchronised oral dosing (AST, ALT). In kind it is in vivo. The protocol: as §1
Mice were sacrificed at 24 hours after administration, following which levels of liver enzymes AST and ALT were measured.
In the NBMI-treated group, eleven (11) mice were treated.

Data set [6] in a line: Clinical trials of NBMI, adverse events. In kind it is in vivo. The note with it: 4.5-9 mg/kg dose in humans.
Setting [7] is: NBMI 200 mg/kg per os 30 minutes later.
The mark [8] stands for this setting: paracetamol 200 mg/kg i.p., synchronous oral NBMI 680 mg/kg in CMC, 24 hours.
Where [9] appears, read: NAC 1200 mg/kg per os 30 minutes later.

`O=C(NCCS)c1cccc(C(=O)NCCS)c1` [NBMI, N,N-bis-2-mercaptoethyl isophthalamide]: the “inhibition of the activation of the receptor (TRPA1) by NAPQI” value in data set [1] is reported as “almost completely inhibited”. The “decrease of area under the curve (AUC) of cys-paracetamol” value in data set [2] (600 mg NBMI one hour prior to 1 g paracetamol) was 23%. In data set [2] (1,200 mg NBMI two hours before 1 g paracetamol), the “decrease of area under the curve (AUC) of cys-paracetamol” value came out at 73%. Besides, the “median ALT level” value in data set [3] (paracetamol 700 mg/kg per os, NBMI 100 mg/kg per os 20 minutes later, sacrificed at 17 hours) came to 624 unit/L. In data set [3] (po, 100 mg/kg), the “median ALT lower than the median of the intoxicated animals” value is reported as “about 95%”. In data set [4] (setting [7]), the “AST level (printed as ALT level)” value is given as 600 unit/L and the “average ALT level” value worked out at 984 unit/L. Also, in data set [5] (680 mg/kg, 24 h), the “AST/ALT ratio, average” value was 2.1. Moreover, in data set [5] (setting [8]), the “ALT, average” value is reported as 952 units/L and the “AST, average” value is reported as 753 units/L. Besides, in data set [6], the “drug related adverse events” value is “no drug related adverse events”.
Regarding `CC(=O)N[C@@H](CS)C(=O)O` [NAC, N-acetyl cysteine, reference compound], the “inhibition of the activation of the receptor (TRPA1) by NAPQI” value in data set [1] is listed as “only partial inhibition”. Further, in data set [4] (setting [9]), the AST level was found to be 180 unit/L and the “average ALT level” value was found to be 55 unit/L.
With `CC(=O)N=C1C=CC(=O)C=C1` [NAPQI, N-acetyl-p-benzoquinone imine], the receptor activation entry in data set [1] (in the absence of NBMI or NAC) is recorded as “about 55%”.

The values are drawn from patent US20250325503A1, “NEW USE OF N,N-BIS-2-MERCAPTOETHYL ISOPHTHALAMIDE” (EMERAMED LIMITED, priority 2016, published 2025).
